The NIST ThermoML archive (doi:10.1016/j.tca.2019.178319)
Numbers after ± are expanded uncertainties.

Conditions: Crystal; for mass density: 298 K, 101.33 kPa, X-ray diffraction; for Normal melting temperature: DTA

Row | SMILES | mass density | Normal melting temperature
1 | [Bi+3].[Bi+3].[S-2].[S-2].[S-2] [bismuth(III) sulfide] | 6800 ± 20 kg/m3 | 777 ± 6 °C
2 | [Bi+3].[Bi+3].[Se-2].[Se-2].[Se-2] [bismuth(III) selenide] | 7660 ± 30 kg/m3 | 707 ± 6 °C
3 | [I][Bi]([I])[I] [bismuth triiodide] | 5770 ± 20 kg/m3 | 407 ± 4 °C
